Reference: patent US10928381B2, “In vitro methods of monitoring autophagy in a human cell using a photoconvertable fluorescent protein linked biomarker” (The Regents of the University of Michigan, priority 2018, dated 2021)

How the values were obtained:
[1] = tested on: Dendra2-LC3 HEK cells; assay: Optical pulse labeling: time-dependent decay of photoconverted (red, RFP/TRITC) Dendra2-LC3 as measure of autophagic flux; format: cell-based, human; parameters: key to Hit class in screen of Enzo Autophagy compound library (9H RFP/0H RFP): enhancer: [Sample9H RFP/OH RFP]<[DMSO9H RFP/OH RFP−3SDDMSO]; inhibitor: [Sample9H RFP/OH RFP]>[DMSO9H RFP/OH RFP 3SDDMSO]; conditions: for Phase II result, Dendra2-LC3 degradation kinetics: in comparison to DMSO; for Hit class in screen of Enzo Autophagy compound library (9H RFP/0H RFP): 10 uM, 9 hours after drug addition
Experimental: FIGS. 8A-E. Time dependent decay of Dendra2-LC3 as an assay of autophagic flux. (FIG. 8A) Dendra2-LC3 reporter cells were imaged prior to photoconversion to measure background TRITC intensity. Immediately following photoconversion with a 5 second pulse of […] light, cells were treated with DMSO, 1 uM Torin1, or 10 nM Bafilomycin-A1 and then were subsequently imaged at the indicated time points. Images are psuedocolored to better highlight intensity differences. (FIGS. 8B-E) Time dependent changes in photoconverted Dendra2-LC3 fluorescence in the TRITC (FIGS. 8B, D) and GFP (FIGS. 8C, E) channels. Gray boxes represent the pre and post-photoconversion time points. TRITC intensity values are normalized, setting the background intensity prior to conversion to 0 and the post-conversion value to 1. GFP values are normalized to the pre-conversion intensity. Error bars represent the SEM from three replicate experiments. […] (FIG. 8C) Following photoconversion there is a 40% drop in GFP intensity. As new Dendra2-LC3 is synthesized, GFP levels return to pre-photoconversion levels over the span of 13.5 hours. […] Cells were transfected with 20 nM ATG5 siRNA two days prior to imaging.
FIG. 9A-C. Evaluating the efficacy of known autophagy modulators. (FIG. 9A) An unbiased screen of the Enzo Autophagy compound library identified several known autophagy compounds as hits providing construct validity to the assay. Rapamycin, NVP-BEZ235 and AKT inhibitor X, were among the compounds appropriately identified as enhancers while Bafilomycin registered as an inhibitor. […] Cells were imaged in RFP to measure background fluorescence, then photoconverted with a 4 second DAPI exposure and immediately imaged again to establish the postconversion intensity. Drugs from the Enzo Autophagy library were added at a concentration of 10 uM via a robotic liquid handler. 9 hours later the cells were imaged again in order to assess the efficacy of the drugs. Hits were defined as follows: enhancer: [Sample9H RFP/OH RFP]<[DMSO9H RFP/OH RFP−3SDDMSO], inhibitor: [Sample9H RFP/OH RFP]>[DMSO9H RFP/OH RFP 3SDDMSO]. […] Imaging of the compound library was repeated in GFP. Intensity values are reported 15 hours after drug treatment. (FIG. 9C) The reduction in Dendra2-LC3 half-life observed upon treatment of autophagic flux enhancers is attenuated with partial knockdown of ATG5. Cells were transfected with 20 nM ATG5 siRNA 2 days prior to imaging. Error bars represent SEM from three replicate experiments.
Experiments were conducted during development of embodiments herein to develop a sensitive method—optical pulse labeling (OPL)—that takes advantage of the photoconvertible fluorescent protein Dendra2 for estimations of autophagic flux in cellulo (Refs 14, 34; herein incorporated by reference in their entireties) (FIG. 1b). […] Dendra2 was fused to LC3, a specific marker of autophagosomes and itself an autophagy substrate (Refs. 27, 31; herein incorporated by reference in their entireties). Following photoconversion, the time-dependent reduction in red LC3-Dendra2 (FIG. 1c) is used to calculate protein half-life, representing an estimate of autophagy flux for individual cells (Refs. 14, 34; herein incorporated by reference in their entireties) Furthermore, because LC3 is degraded as autophagosomes mature, the return to steady-state levels of green Dendra2-LC3 after photoconversion (FIG. 1d) reflects activity within the pathway as a whole. The assay is noninvasive, permitting longitudinal analyses of autophagy kinetics in living cells, and amenable to HTS.
For these studies the potent mTOR inhibitor torin1 (Ref. 36; herein incorporated by reference in its entirety) was selected as a positive control for autophagy induction, and the vacuolar ATPase inhibitor bafilomycin-A1 (Ref. 37; herein incorporated by reference in its entirety) as a positive control for autophagy inhibition. In each case, DMSO served as a vehicle (negative) control. […]

[2] = tested on: Dendra2-LC3 HEK cells; assay: Native (green, GFP) Dendra2-LC3 intensity and puncta, phase I primary screen readout (T15/T0); format: cell-based, human; conditions: for Phase I result, normalized GFP intensity (T15/T0): 15 h
Description: Conventional methods for estimating autophagy flux rely upon the assessment of LC3 or other autophagy substrates by Western blotting or immunocytochemistry (Ref. 27; herein incorporated by reference in its entirety); by their very nature, these techniques are static and limited to dead cells. Fluorescence-based methods that use tagged substrates allow visualization of autophagy within living cells, but typically require the overexpression of autophagy target proteins that may disrupt the very process they are intended to measure. To assess autophagy in human cells without compromising or interfering with the pathway, experiments were conducted during development of embodiments herein utilizing CRISPR/Cas9 genome editing (Refs. 29-30; herein incorporated by reference in their entireties) to insert the Dendra2 open reading frame into the MAP1LC3B locus (encoding LC3) of HEK cells (FIG. 2a). A mutated, nickase version of Cas9 (Cas9n) was used that is incapable of making double-stranded DNA breaks, thereby minimizing the risk of non-homologous end joining and unwanted insertions or deletions (Refs. 29, 35; herein incorporated by reference in their entireties). Two separate single guide RNAs (sgRNAs) were designed that recognize sequences just upstream and downstream of the MAP1LC3B start codon, and a homology directed repair (HDR) vector encoding the Dendra2 open reading frame flanked by 400 bp of homologous sequence surrounding the MAP1LC3B start codon (FIG. 2a). Following expression of the sgRNAs, Cas9n and the HDR in HEK cells, colonies were selected based upon green fluorescence and passaged to homogeneity (FIG. 2b). The insertion site was confirmed by DNA sequencing, PCR, and immunocytochemistry using antibodies that recognize LC3. Providing further validation of the insertion, transfection with siRNA directed against the MAP1LC3B locus elicited a significant reduction in Dendra2-LC3 protein levels as measured by western blotting and native GFP fluorescence (FIG. 2c, d). In untreated cells, Dendra2-LC3 fluorescence appears diffuse, as expected (FIG. 3a). […] Second, autophagy induction in these cells is accompanied not only by the formation of puncta, but also by relative decreases in diffuse Dendra2-LC3 fluorescence, as indicated by the model in FIG. 1.
For these studies the potent mTOR inhibitor torin1 (Ref. 36; herein incorporated by reference in its entirety) was selected as a positive control for autophagy induction, and the vacuolar ATPase inhibitor bafilomycin-A1 (Ref. 37; herein incorporated by reference in its entirety) as a positive control for autophagy inhibition. In each case, DMSO served as a vehicle (negative) control. Dendra2-LC3 was photoconverted immediately prior to drug application, and the fluorescence intensity in the green (GFP) and red (RFP) channels was measured at regular intervals for 15 h.
The Z′ value for the effect of torin1 on the normalized GFP intensity, calculated as a ratio of GFP intensity at 15 h to that at 0 h (T15/T0), was 0.63 when the assay was conducted in a 96-well format in our laboratory, and 0.56 when conducted in a 384-well format at the Center for Chemical Genomics (CCG, FIG. 3e), indicative of a robust screening platform (Ref. 38; herein incorporated by reference in its entirety). […] The false negative rate was near zero, ensuring a highly sensitive assay.
The possibility that cell death and toxicity mimics the reduction in GFP intensity that would otherwise denote autophagy induction was also addressed. To avoid confounding from toxicity, the area occupied by cells in each image is calculated using ImageJ software and used as a proxy for cell number; since all wells received the same number of cells, >25% reductions in the area occupied by cells at the end of the experiment indicates toxicity. The formation of Dendra2-LC3 puncta in each condition is scored simultaneously using the ‘analyze particles’ function in ImageJ. […]

[3] = tested on: Tandem reporter (RFP-GFP-LC3) HeLa cells; assay: Tandem reporter (RFP-GFP-LC3) assay, % of RFP puncta that are GFP positive; format: cell-based; conditions: imaged after 12 hours
Experimental: FIG. 13A-E. Validation of novel autophagy inhibitors with an independent measure of autophagic flux. (FIG. 13A) Tandem reporter (RFP-GFP-LC3) HeLa cells treated with the indicated compounds and imaged after 12 hours in RFP (middle panels) GFP (bottom panels). […] Concentrations used correspond to the lowest dose resulting in the maximum degree of colocalization between GFP and RFP puncta as calculated in (B). These are: 3 nM Bafilomycin, 1 uM Quinacrine, 50 uM 245536, and 100 uM of 254522, 45808, 234794, and 237373. (Scale bar: 50 μm) (FIG. 13B) The percentage of RFP positive puncta that are also GFP positive in tandem reporter HeLa cells was analyzed using Cell Profiler. First GFP (1a) and RFP (1b) images of the same field of cells are uploaded into Cell Profiler. Using the GFP images, nuclei are identified (2a-green outlines) and a nuclear mask (2b) is generated. […] Cellular boundries are identified (3a-purple outlines) and a cellular mask is created. […] Only puncta within this mask will be evaluated in subsequent steps. […] (FIG. 13D) Tandem reporter HeLa cells were imaged once prior to drug treatment and then treated with the lowest dose that produced the maximum response as calculated in (FIG. 13C) and imaged immediately after. […] Each point is calculated by taking the mean % of (GFP+/RFP+ puncta)/(RFP+) from 8 technical replicates. […]

[4] = tested on: primary rat cortical neurons overexpressing WT-TDP43-GFP; assay: Survival of primary neurons overexpressing TDP43, automated fluorescence microscopy; format: cell-based; conditions: 25 nM

| Compound | Phase II result, Dendra2-LC3 degradation kinetics [1] | Phase I result, normalized GFP intensity (T15/T0) ([2]; Prestwick and Enzo collections) | Hit class in screen of Enzo Autophagy compound library (9H RFP/0H RFP) [1] | further results |
| --- | --- | --- | --- | --- |
| O=C(CCCCCN1C(=O)c2cccc3cccc(c23)C1=O)NO [Scriptaid] | significantly slowed Dendra2-LC3 degradation | significant increases in Dendra2-LC3 GFP fluorescence | – | – |
| OCCN1CCN(CCCN2c3ccccc3Sc3ccc(C(F)(F)F)cc32)CC1 [Fluphenazine] | – | – | – | Formation of Dendra2-LC3 (LC3-positive) puncta ([2]; FPZ 0.5 μM, torin1 1 μM): elicits the formation of LC3-positive puncta; GFP intensity of native Dendra2-LC3 ([2]; FPZ 0.5 μM, torin1 1 μM, vs DMSO): reduces the steady-state GFP intensity |
| CCN(CC)CCCC(C)Nc1c2ccc(Cl)cc2nc2ccc(OC)cc12 (stereo not drawn) [Quinacrine] | – | – | – | Lowest dose resulting in the maximum degree of colocalization between GFP and RFP puncta [3]: 1 µM |
| Cn1c(=O)n(-c2ccc(C(C)(C)C#N)cc2)c2c3cc(-c4cnc5ccccc5c4)ccc3ncc21 [NVP-BEZ235] | – | – | enhancer | Rank among autophagy inducers in phase I ([2]; Prestwick and Enzo collections): rank among the most potent inducers; Effect on TDP43 toxicity [4]: suppresses toxicity; Hazard ratio, Cox proportional hazards analysis ([4]; p<0.05): 0.89 |
| CO[C@H]1C[C@@H]2CC[C@@H](C)[C@@](O)(O2)C(=O)C(=O)N2CCCC[C@H]2C(=O)O[C@H]([C@H](C)C[C@@H]2CC[C@@H](O)[C@H](OC)C2)CC(=O)[C@H](C)/C=C(\C)[C@@H](O)[C@@H](OC)C(=O)[C@H](C)C[C@H](C)/C=C/C=C/C=C/1C [Rapamycin] | – | – | enhancer | – |
| NC(=O)N1c2ccccc2C=Cc2ccccc21 [carbamazepine] | significantly slowed Dendra2-LC3 degradation | significant increases in Dendra2-LC3 GFP fluorescence | failure to markedly affect flux | – |
| OC[C@H]1O[C@H](O[C@H]2O[C@H](CO)[C@@H](O)[C@H](O)[C@H]2O)[C@H](O)[C@@H](O)[C@@H]1O [trehalose] | – | – | failure to markedly affect flux | – |
| CCN(CC)CCCCN1c2ccccc2Oc2ccc(Cl)cc21 [AKT inhibitor X] | – | autophagy inducers | enhancer | – |
| C[C@@H]1C[C@@H]([C@H](O)CC2CC(=O)NC(=O)C2)C(=O)[C@@H](C)C1 [cycloheximide] | failed to affect Dendra2-LC3 degradation kinetics | potential autophagy inducers | – | – |
